The test system of assay [1] is Ewing Sarcoma, AML, multiple myeloma and rhabdoid cell lines. As to the kind of experiment: Cell viability (CellTiter-Glo) in individual cell line panels. Format: cell-based. As to conditions: Ewing Sarcoma lines and TC32 cells, 3 days. As to the method:
(§1) Cells were plated in 384-well culture-treated plates and allowed to settle overnight. After drug treament and appropriate incubation time, cell viability was assessed using the CellTiter-Glo Luminescent Cell Viability Assay (Promega). Luminescence was read on a Fluostar Omega Reader (BMG Labtech).

The subject of assay [2] is TC32 cells. The assay is described as follows: Cell viability (CellTiter-Glo) in TC32 cells expressing sgRNA (TP53-KO vs control). Format: cell-based. The conditions noted are these: 3 days, Cell Titer Glo. Here is the method:
as §1
A general note: ATP-based viability assays read luminescence as a measure of living cells.

Assay [3] deals with T1, full-length USP7 (Homo sapiens, UniProt Q93009).
T1 construct: The constructs encoding USP7 full length (amino acids 1–1102) and catalytic domain (208–560); inferred from Ni-NTA purification; made in house; host or cells: E. coli BL21 (DE3)
The assay is described as follows: Ub-AMC enzymatic assay, full-length USP7, 6 h pre-incubation. The conditions noted are these: for IC50: Ub-AMC, read-out: IC50. The class given is biochemical. As to the method: Full length USP7 was tested for its activity in Ubiquitin-AMC assay in presence or absence of inhibitors. USP7 (5 nM) was pre-incubated for 6 hours at room temperature with different concentrations of inhibitors or DMSO as a control in 50 mM HEPES pH 7.5, 0.5 mM EDTA, 11 uM ovalbumin, and 5 mM DTT. Ubiquitin-AMC (Boston Biochem) was then added to a final concentration of 500 nM. The initial rate of the reaction was measured by collecting fluorescence data at one minute intervals over 30-minute period using a Clariostar fluorescence plate reader at excitation and emission wavelength of 345 and 445 nm respectively. The calculated initial rate values were plotted against inhibitor concentrations to determine IC50s. All the experimental data were plotted using Prism GraphPad. All assays for each compound were performed at least twice for each compound.

The target of assay [4] is T1, full-length USP7. The assay is described as follows: Ub-AMC time course assay for kinact / KI. Format: biochemical. Here is the method:
To calculate the ki and kianct values for XL-9678-041, the procedure above was used, but different concentrations of inhibitor were incubated with USP7 for different time points (5 min - 3 hours) before adding Ubiquitin-AMC. To determine kobs, the time course curves were fit to the equation y = ymax(1 − exp(−kobs⋅x)). The kobs values were then plotted against the inhibitor concentrations and fit to the equation y = kinact/(1 + (ki/x)) to obtain the values for ki and kianct.
Supplementary Figure Captions
Figure S1: Full-length recombinant purified USP7 was pre-incubated with XL041 at the indicated concentrations for the indicated times, then Ub-AMC was added and fluorescence was monitored. Graphpad Prism software was used to calculate initial reaction velocity and derive KI / kinact values (bottom panel).
Figure S2: Mass spectra (left) and zero-charge mass spectra (right) of WT USP7 catalytic domain incubated for 4 hours with DMSO (top) or 2.5-fold molar excess XL058 (bottom). […]
Figure S5: MCF7 cells were transfected with the indicated pcDNA constructs for 48 hours, then treated with XL177A at the indicated concentration for 3 hours. Cells were lysed, and FLAG-USP7 target engagement was assessed with the DUB ABP HA-Ub-VS. Densitometry was performed using ImageStudio software and analyzed using Graphpad Prism. […]

The target in assay [5] is T2, USP7 catalytic domain (Homo sapiens, UniProt Q93009).
T2 construct: catalytic domain (208–560) used were cloned as described; inferred from Ni-NTA purification; made in house; host or cells: E. coli BL21 (DE3)
The assay is described as follows: Intact MS / CE-MS labeling of purified USP7 catalytic domain. Format: binding. As to conditions: 2.5-fold molar excess compound. As to the method: Purified USP7 catalytic domain was diluted to 20 μM in 10 μL labeling buffer (20 mM HEPES pH 7.5, 150 mM NaCl, 1 mM TCEP) and incubated for the indicated times with 50 μM (2.5×) compound. After incubation, samples were flash frozen in liquid nitrogen and stored at −80 °C until analysis.
Intact mass analysis was performed by injecting 5 µg USP7 catalytic domain onto a self-packed reversed phase column (1/32” O.D. × 500 um I.D., 5 cm of POROS 10R2 resin). After desalting, protein was eluted with an HPLC gradient (0–100% B in 4 minutes, A = 0.2 M acetic acid in water, B = 0.2 M acetic acid in acetonitrile, flow rate ~30 µL/min) into an LTQ ion trap mass spectrometer (ThermoFisher Scientific, San Jose, CA). Mass spectra were processed using MagTran1.03b2[52].
Peptides were desalted using SP3[53], dried by vacuum centrifugation, and reconstituted in 1% formic acid/50% acetonitrile with 100 mM ammonium acetate. Peptides were then analyzed by CE-MS using a ZipChip CE system and autosampler (908 Devices, Boston, MA) interfaced to a QExactive HF mass spectrometer (ThermoFisher Scientific, San Jose, CA). Peptide solution was loaded for 30 seconds, and the mass spectrometer was operated in data dependent mode and subjected the 5 most abundant ions in each MS scan (60k resolution, 3E6 target, lock mass enabled) to MS/MS (15k resolution, 1E5 target, 100 ms max inject time). […]

Assay [6] concerns MCF7 cells. As to the kind of experiment: 3' DGE RNA-seq transcriptional profiling. Format: cell-based. As to conditions: gene ABCA12; concentration 1. More on the design: log2FoldChange: concentration or dose not given beside the values. As to the method:
The DGE RNA sequencing was performed following the published method[39],[40] with modifications as described below. MCF7 cells were seeded in a 384 well plate at 2500 cells per well, allowed to adhere for 24 hours, then treated with two doses in triplicate of XL177A, XL177B, Nutlin-3, or DMSO. After 24 hours of treatment, an EL405x plate washer (BioTek) was used to aspirate the media and wash once with PBS. Cells were lysed in the plate with 10 µl of lysis buffer (1x Qiagen TCL, 1% BME) for 5 minutes at room temperature, then stored at −80 °C. Automated liquid handling was performed with assistance from ICCB-Longwood Screening Facility. A BRAVO Automated Liquid Handling Platform (Agilent) was used for RNA extraction as follows. The lysate was mixed and 10 µl was transferred to a 384 well PCR plate. 28 µl of homemade SPRI[66] (solid-phase reversible immobilization) beads were added to the lysate and mixed. After 5 minutes, the beads were pulled down by placing the plate on a magnet, then the beads were washed twice with 80% ethanol. Beads were air dried for 1 minute, then 20 µl of nuclease free water was added, the plate was removed from the magnet, and the beads were resuspended. After 5 minutes, the plate was placed back on the magnet to pull down the beads. The supernatant was transferred to a fresh 384 well plate. RNA quantity was checked with the Qubit Fluorometer and RNA quality was assessed using the Agilent BioAnalyzer RNA 6000 Pico Kit. The BRAVO platform was again used to transfer 5 µl of supernatant was transferred to a fresh 384 well plate with RT master mix and 1 µl of barcoded E3V6NEXT adapters for reverse transcription and template switching. The plate was incubated for 90 minutes at 42 °C, then cDNA was pooled, purified with the QIAquick PCR purification kit. The full-length cDNA was treated with Exonuclease I to remove excess primers for 30 minutes at 37 °C then amplified x5 cycles with Advantage 2 PCR Enzyme System using the SINGV6 primer. The amplified full-length cDNA was purified with Agencourt AMPure XP magnetic beads and quantitated by Qubit Fluorometer. The sequencing library was prepared using the Nextera DNA kit following the manufacturer’s instructions. Briefly, 55 ng of cDNA was tagmented for 5 minutes at 55 °C then purified using Zymo DNA Clean & Concetrator-5 column, then amplified x7 cycles and purified using a 0.9x ratio of AMPure XP magnetic beads. The library size distribution was assessed by Agilent BioAnalyzer HS DNA Kit before it was quantified by qPCR and sequenced on an Illumina NextSeq at the Biopolymers Facility at Harvard Medical School.
The bcbio-nextgen single cell RNA-seq analysis pipeline (https://bcbio-nextgen.readthedocs.io/en/latest/) was used to deconvolve the well barcodes and convert reads to counts. Any detected barcode that differed by more than one base from an expected barcode was removed. Unique reads were identified using unique molecular identifiers (UMIs) in order to remove PCR duplicates. The reads remaining after these filters were aligned to the transcriptome (GRCh38) using RapMap[67]. The R package DESeq. 2 version 1.20.0 (R version 3.5.1) was used for differential expression analysis.

Where two headings read alike, the source gives them in different places.

By IC50 is commonly meant the concentration needed to halve the response being measured. As usually defined, the kinact is the maximal first-order rate at which the target is inactivated.

T1 sequence (Q93009 whole entry, the tested form may be a part): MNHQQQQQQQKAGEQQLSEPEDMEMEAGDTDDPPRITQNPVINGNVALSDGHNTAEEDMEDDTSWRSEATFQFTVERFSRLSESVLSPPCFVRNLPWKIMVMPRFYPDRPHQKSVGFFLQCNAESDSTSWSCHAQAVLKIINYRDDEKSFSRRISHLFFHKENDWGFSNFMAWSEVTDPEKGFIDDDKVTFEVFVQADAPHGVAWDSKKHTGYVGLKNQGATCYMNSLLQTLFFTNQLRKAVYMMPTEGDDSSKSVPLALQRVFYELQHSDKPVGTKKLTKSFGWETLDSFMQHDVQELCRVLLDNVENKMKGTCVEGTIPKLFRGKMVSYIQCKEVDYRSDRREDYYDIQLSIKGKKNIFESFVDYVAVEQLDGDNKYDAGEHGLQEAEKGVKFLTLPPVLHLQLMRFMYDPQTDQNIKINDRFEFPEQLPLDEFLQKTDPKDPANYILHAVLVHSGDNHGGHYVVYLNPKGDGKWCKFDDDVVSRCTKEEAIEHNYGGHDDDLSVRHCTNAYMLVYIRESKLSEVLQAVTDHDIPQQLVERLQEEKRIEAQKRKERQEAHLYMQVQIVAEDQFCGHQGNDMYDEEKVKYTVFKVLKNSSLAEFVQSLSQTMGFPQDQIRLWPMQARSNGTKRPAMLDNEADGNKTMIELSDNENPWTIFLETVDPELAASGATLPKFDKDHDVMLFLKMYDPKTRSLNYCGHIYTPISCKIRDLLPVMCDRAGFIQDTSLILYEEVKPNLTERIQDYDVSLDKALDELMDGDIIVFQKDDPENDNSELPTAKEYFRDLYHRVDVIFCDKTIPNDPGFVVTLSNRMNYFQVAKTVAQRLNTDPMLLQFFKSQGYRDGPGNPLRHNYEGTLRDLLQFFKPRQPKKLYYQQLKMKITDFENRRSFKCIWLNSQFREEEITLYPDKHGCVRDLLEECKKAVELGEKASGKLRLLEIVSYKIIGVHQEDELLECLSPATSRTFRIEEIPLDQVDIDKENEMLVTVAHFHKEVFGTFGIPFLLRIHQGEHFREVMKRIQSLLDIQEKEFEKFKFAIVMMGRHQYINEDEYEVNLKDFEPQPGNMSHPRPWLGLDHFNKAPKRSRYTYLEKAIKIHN
T2 sequence (Q93009 208-560): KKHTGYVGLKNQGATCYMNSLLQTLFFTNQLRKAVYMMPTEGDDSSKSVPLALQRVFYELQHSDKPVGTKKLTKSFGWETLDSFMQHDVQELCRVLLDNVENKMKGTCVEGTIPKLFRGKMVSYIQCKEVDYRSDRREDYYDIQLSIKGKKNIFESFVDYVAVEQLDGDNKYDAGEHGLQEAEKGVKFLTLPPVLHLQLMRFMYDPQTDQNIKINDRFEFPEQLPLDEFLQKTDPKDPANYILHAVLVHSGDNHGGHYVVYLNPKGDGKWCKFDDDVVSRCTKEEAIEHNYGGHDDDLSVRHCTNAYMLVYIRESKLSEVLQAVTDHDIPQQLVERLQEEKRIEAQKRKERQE

On to `CCc1c(-c2ccc3[nH]ncc3c2)cnc(N)c1-c1ccc(O)cc1` [GNE-6640], for which the “selectivity for TP53-WT versus TP53-mutant or TP53-KO cells” value in assay [1] was “showed little selectivity”; in assay [1] (listed as SB1_F_057) it was “no differential response”. In addition, the “differential response in TC32 TP53 knock out cells” value in assay [2] was “no differential”.
Turning to `CN1CCN(CCC(=O)Nc2ccc3c(=O)n(CC4CCN(C(=O)C(CCCNC(=O)c5ccc6c(Cl)c7c(nc6c5)CCCC7)Cc5ccccc5)CC4)cnc3c2)CC1` (centres unmarked) [XL024], in assay [3], the “less potent than XL058” value is ~ 10 fold, the “less potent than XL112” value is on record as ~ 1,000 fold and the IC50 was determined as 8000 nM. In addition, the IC50 in assay [3] (Table S1) was determined as 8130 nM.
As to `CN1CCN(CCC(=O)Nc2ccc3c(=O)n(CC4(O)CCN(C(=O)CCCCNC(=O)c5ccc6c(Cl)c7c(nc6c5)CCCC7)CC4)cnc3c2)CC1` [XL041], the IC50 in assay [3] (Table S1) was found to be 152 nM. Further, the mode of inhibition entry in assay [4] is given as “irreversible mode of inhibition”. Further, the kinact in assay [4] (pre-incubation 5 min - 3 hours) was 0.00373 s⁻¹.
Regarding `CN1CCN(CCC(=O)Nc2ccc3c(=O)n(CC4(O)CCN(C(=O)C(CCCNC(=O)c5ccc6cc7c(nc6c5)CCCC7)Cc5ccccc5)CC4)cnc3c2)CC1` (centres unmarked) [XL058], the IC50 in assay [3] came to 904 nM. In addition, the “labeling of USP7 catalytic domain by MS” value in assay [5] was “unable to label”.
For the compound `CN1CCN(CCC(=O)Nc2ccc3c(=O)n(CC4(O)CCN(C(=O)C(CCCNC(=O)c5ccc6c(Cl)c7c(nc6c5)CCCC7)Cc5ccccc5)CC4)cnc3c2)CC1` (centres unmarked) [XL112], the IC50 in assay [3] was found to be 5.9 nM.
In assay [6], `COc1ccc(C2=N[C@@H](c3ccc(Cl)cc3)[C@@H](c3ccc(Cl)cc3)N2C(=O)N2CCNC(=O)C2)c(OC(C)C)c1` [nutlin3a] came in with a log2FoldChange of 0.9473.
